Measurements taken from ChEMBL document CHEMBL1201862, “PubChem BioAssay data set” (2004).
Active and inactive are the calls of the source.

Tests used:
[1] = target: T1, Aminopeptidase N (Plasmodium falciparum FcB1/Columbia, UniProt O96935); assay: malaria alanyl aminopeptidase activity blockers – biochemical, fluorogenic H-Leu-NHMec substrate, 1536-well (AID 1445); set-up: species or system Plasmodium falciparum 3D7, 3D7
T1 sequence (O96935 whole entry): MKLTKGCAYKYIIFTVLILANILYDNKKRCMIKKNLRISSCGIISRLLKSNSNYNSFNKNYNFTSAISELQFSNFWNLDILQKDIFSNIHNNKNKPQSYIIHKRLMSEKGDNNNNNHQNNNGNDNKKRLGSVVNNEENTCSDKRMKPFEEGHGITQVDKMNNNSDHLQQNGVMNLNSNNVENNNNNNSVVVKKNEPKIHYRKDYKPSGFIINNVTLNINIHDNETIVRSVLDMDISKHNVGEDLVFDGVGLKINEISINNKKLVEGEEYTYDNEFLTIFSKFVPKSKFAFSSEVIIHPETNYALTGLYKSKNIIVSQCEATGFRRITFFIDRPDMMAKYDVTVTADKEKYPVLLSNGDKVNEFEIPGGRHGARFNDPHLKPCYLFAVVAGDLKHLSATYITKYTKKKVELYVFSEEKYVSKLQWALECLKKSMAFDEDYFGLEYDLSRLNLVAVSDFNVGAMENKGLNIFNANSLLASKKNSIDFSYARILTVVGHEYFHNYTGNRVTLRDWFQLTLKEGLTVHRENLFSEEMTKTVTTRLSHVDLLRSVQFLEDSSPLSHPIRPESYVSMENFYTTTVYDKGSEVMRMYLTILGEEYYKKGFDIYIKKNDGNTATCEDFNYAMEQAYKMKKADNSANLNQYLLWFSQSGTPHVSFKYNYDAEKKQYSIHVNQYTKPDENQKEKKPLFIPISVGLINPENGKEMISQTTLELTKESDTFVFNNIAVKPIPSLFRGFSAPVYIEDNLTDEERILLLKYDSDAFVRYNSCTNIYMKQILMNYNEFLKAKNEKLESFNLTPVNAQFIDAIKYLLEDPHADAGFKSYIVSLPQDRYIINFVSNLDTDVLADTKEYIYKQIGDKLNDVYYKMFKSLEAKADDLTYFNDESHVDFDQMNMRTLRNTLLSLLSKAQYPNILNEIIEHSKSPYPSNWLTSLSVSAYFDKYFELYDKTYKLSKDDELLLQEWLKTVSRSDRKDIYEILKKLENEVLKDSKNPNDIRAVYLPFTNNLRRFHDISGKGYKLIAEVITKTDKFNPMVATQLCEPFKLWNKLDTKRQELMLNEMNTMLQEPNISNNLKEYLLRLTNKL

[2] = target: Large T antigen (Simian virus 40, UniProt P03070); format: functional, Betapolyomavirus macacae;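 note: Confirmatory-stage PubChem screen for compounds that inhibit SV40 T antigen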
Large T antigen, sequence (P03070 whole entry): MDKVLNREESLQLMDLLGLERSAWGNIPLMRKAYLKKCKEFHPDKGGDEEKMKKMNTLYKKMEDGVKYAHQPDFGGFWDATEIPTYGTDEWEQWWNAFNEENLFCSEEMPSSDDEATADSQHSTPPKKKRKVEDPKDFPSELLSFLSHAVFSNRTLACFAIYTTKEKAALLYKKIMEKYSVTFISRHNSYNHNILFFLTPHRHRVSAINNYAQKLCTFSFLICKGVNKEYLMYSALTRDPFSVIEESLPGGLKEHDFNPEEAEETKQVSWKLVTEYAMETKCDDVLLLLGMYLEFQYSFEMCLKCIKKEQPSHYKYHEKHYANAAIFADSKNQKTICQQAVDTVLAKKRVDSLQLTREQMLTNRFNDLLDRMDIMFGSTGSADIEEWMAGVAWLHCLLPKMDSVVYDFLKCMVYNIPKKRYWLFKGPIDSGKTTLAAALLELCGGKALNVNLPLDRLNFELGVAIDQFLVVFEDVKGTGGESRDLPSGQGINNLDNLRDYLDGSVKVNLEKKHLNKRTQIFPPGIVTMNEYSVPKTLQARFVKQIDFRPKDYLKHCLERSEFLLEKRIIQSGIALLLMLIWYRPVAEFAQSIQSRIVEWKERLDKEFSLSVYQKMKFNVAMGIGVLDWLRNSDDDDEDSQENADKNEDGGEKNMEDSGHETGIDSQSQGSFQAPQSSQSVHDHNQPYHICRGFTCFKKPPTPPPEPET

[3] = target: E3 ubiquitin-protein ligase XIAP (Homo sapiens, UniProt P98170); assay: Counter Screen using XIAP-Bir3 for Chemical Antagonists of Bir1/2 domains of IAP-family anti-apoptotic proteins. [Related pubchem assays (depositor defined):AID1018, AID1449, AID1514, AID1638, AID1749, AID1750, AID488957, AID488963]
E3 ubiquitin-protein ligase XIAP, sequence (P98170 whole entry): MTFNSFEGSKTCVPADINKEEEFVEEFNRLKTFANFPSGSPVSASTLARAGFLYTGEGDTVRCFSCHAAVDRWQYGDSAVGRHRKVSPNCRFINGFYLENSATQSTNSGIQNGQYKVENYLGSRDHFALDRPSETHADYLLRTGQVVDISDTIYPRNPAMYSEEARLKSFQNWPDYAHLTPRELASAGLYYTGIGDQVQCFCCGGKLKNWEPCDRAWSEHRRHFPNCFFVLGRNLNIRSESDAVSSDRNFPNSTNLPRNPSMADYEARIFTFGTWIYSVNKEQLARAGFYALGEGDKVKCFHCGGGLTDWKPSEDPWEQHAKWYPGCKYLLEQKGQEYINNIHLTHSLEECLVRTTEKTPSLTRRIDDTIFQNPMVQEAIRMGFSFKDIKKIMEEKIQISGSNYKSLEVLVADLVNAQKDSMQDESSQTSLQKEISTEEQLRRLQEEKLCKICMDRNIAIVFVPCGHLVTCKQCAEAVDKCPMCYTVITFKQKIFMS

[4] = target: Bifunctional protein GlmU (Mycobacterium tuberculosis, UniProt P9WMN3); assay: Inhibitors of Mycobacterial Glucosamine-1-phosphate acetyl transferase (GlmU). Secondary screen.; set-up: species or system Mycobacterium tuberculosis H37Rv
Bifunctional protein GlmU, sequence (P9WMN3 whole entry): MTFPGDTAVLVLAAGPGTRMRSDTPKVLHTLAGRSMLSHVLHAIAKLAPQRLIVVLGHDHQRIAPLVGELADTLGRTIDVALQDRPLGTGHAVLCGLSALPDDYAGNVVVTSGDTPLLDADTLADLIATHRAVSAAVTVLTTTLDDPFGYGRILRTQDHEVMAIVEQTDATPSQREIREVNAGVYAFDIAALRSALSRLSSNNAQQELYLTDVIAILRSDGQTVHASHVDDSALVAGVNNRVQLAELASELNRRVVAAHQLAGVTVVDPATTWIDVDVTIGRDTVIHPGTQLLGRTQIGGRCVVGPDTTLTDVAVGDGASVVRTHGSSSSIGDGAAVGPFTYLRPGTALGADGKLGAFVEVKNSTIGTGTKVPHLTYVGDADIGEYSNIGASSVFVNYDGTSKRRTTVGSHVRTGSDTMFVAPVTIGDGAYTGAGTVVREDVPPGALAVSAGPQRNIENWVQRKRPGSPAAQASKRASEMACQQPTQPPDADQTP

[5] = target: Keap1/Nrf2 (Homo sapiens, UniProt Q14145); assay: disruptors of Keap1 binding to Nrf2 peptide – biochemical, fluorescence polarization, cherry-picked samples, dose response (AID 588683)
Keap1/Nrf2, sequence (Q16236 whole entry): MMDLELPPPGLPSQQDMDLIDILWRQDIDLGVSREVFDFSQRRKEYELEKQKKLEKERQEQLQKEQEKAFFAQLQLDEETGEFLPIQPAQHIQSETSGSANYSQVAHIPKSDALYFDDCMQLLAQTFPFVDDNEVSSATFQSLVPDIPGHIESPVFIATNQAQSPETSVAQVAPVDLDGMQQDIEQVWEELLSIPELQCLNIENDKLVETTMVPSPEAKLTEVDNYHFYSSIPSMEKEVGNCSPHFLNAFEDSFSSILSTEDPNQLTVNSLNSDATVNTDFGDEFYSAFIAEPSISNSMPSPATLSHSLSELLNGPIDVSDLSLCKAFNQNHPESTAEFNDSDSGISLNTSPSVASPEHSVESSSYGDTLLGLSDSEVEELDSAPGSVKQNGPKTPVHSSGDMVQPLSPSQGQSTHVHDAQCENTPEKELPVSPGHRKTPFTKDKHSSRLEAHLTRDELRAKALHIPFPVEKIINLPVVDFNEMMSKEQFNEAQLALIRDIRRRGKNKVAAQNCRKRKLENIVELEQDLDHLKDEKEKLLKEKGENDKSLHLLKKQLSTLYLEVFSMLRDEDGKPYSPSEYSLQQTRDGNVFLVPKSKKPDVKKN
Keap1/Nrf2, sequence (Q14145 whole entry): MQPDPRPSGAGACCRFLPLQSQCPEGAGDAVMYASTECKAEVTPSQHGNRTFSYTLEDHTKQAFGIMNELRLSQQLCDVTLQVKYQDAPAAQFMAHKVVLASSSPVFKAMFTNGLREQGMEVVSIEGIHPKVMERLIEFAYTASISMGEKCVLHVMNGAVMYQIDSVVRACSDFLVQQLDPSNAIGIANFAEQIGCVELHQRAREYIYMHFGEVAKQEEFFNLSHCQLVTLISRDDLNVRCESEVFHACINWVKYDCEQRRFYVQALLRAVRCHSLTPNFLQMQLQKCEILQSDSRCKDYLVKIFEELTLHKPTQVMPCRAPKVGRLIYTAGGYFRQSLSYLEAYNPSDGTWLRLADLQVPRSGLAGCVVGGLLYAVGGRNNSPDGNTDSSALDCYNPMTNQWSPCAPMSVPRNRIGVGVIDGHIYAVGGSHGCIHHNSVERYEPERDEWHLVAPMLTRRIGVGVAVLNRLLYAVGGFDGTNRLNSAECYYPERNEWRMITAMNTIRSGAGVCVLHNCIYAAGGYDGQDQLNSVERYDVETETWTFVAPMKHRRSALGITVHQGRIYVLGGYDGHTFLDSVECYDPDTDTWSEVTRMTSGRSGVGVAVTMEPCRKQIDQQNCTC

[6] = target: Genome polyprotein (dengue virus type 2, UniProt P29990); assay: flavivirus cap methylation enzyme inhibition – biochemical, confirmation dose response, primary screen (AID 588689); format: functional
Genome polyprotein, sequence (P29990 2492-3391 limits assumed): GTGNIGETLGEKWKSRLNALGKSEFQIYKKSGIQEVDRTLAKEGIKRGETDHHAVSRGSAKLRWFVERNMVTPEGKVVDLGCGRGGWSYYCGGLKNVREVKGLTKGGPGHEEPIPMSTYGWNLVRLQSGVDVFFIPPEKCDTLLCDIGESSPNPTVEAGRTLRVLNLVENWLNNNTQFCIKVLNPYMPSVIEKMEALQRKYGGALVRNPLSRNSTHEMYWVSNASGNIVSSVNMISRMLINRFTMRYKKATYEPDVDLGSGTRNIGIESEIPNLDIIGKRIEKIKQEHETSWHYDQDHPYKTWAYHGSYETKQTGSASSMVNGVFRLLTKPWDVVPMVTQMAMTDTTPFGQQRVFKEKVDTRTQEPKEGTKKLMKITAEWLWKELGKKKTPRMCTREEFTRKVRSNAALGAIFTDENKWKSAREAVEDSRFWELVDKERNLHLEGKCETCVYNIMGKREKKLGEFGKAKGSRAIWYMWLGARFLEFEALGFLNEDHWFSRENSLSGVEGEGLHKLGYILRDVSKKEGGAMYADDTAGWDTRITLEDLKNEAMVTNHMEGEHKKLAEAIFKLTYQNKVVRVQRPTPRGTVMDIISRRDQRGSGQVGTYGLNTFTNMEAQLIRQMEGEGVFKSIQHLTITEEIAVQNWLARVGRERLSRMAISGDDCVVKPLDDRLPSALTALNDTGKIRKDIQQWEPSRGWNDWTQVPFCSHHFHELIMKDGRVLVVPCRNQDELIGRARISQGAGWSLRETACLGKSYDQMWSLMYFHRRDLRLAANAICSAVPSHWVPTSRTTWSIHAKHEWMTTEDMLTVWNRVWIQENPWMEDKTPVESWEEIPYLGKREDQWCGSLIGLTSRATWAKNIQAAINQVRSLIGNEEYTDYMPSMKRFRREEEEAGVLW

[7] = target: T2, Histone-lysine N-methyltransferase NSD2 (Homo sapiens, UniProt O96028); format: biochemical
T2 sequence (O96028 whole entry): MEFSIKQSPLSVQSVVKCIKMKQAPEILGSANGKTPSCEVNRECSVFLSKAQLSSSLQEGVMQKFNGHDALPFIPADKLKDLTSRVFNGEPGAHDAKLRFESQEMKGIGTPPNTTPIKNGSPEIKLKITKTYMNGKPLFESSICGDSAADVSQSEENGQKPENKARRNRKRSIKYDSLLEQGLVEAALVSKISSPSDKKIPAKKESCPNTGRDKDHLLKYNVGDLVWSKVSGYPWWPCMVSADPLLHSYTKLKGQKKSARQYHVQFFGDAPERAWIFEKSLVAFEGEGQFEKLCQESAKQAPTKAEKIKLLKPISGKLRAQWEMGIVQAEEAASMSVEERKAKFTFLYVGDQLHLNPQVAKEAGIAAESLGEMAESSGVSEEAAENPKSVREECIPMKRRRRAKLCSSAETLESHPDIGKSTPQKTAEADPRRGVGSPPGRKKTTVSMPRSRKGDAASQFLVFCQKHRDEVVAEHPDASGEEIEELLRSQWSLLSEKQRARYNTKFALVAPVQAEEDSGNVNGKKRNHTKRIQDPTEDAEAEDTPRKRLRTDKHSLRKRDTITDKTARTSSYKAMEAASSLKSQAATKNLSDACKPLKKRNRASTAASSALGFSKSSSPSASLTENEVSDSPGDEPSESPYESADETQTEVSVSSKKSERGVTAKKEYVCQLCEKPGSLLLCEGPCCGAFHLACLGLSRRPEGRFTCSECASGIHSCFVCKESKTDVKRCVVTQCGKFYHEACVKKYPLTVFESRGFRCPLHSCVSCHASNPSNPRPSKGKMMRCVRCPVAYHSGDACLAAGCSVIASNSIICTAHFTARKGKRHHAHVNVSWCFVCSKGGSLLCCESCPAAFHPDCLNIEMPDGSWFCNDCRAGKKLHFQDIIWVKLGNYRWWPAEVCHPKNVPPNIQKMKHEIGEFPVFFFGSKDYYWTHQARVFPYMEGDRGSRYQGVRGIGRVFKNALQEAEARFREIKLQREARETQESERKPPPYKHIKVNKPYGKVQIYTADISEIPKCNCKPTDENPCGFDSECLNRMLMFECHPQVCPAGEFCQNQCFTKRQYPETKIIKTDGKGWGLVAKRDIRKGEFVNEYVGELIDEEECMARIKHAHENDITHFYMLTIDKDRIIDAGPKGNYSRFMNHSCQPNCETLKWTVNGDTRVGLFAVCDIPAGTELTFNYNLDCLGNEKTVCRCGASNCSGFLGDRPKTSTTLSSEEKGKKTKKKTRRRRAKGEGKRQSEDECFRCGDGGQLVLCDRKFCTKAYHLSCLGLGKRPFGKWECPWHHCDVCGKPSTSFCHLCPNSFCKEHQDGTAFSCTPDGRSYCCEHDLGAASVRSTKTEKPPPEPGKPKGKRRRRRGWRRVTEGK

[8] = target: Ubiquitin carboxyl-terminal hydrolase BAP1 (Homo sapiens, UniProt Q92560); assay: inhibition of BAP1 ubiquitin hydrolase activity – biochemical, dose response (AID 714); format: functional
Ubiquitin carboxyl-terminal hydrolase BAP1, sequence (Q92560 whole entry): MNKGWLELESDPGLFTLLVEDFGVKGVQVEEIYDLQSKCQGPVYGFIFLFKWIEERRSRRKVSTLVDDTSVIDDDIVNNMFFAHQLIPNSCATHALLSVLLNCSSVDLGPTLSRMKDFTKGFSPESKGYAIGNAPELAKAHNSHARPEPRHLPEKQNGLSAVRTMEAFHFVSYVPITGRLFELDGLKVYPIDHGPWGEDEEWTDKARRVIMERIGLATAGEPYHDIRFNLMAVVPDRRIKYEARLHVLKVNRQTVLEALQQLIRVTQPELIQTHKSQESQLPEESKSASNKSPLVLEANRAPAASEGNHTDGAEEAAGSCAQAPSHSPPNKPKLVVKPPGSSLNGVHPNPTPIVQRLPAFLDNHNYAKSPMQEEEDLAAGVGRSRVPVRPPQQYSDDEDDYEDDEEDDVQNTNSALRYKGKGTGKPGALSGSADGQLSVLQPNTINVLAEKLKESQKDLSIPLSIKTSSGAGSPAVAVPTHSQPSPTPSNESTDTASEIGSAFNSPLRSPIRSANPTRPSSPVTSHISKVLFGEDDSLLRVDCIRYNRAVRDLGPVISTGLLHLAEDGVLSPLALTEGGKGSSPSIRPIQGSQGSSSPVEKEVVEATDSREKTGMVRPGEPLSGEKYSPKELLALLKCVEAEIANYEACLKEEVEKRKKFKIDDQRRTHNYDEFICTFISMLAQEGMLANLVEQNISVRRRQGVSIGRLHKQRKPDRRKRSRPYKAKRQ

[9] = tested on: CHO-K1; assay: (§1) Counterscreen for antagonists of the orexin 1 receptor (OX1R; HCRTR1): Homogeneous time resolved fluorescence (HTRF)-based cell-based dose response assay to identify antagonists of the parental CHO-K1 cell line. [Related pubchem assays (depositor defined):AID434989, AID435008, AID463079, AID485270, AID492963, AID492964, AID492965, AID493232, AID504699, AID504701]; format: functional; settings: Cricetulus griseus
[10] = as §1, with “Fluorescence-based” for “Homogeneous time resolved fluorescence (HTRF)-based”, “cell-based high throughput” for “cell-based”, “CHO” for “CHO-K1”; format: functional
[11] = target: DNA dC->dU-editing enzyme APOBEC-3G (Homo sapiens, UniProt Q9HC16); assay: Dose Response confirmation of small molecule APOBEC3G DNA Deaminase Inhibitors via a fluorescence-based single-stranded DNA deaminase assay. [Related pubchem assays (depositor defined):AID493012, AID493028]; format: functional
DNA dC->dU-editing enzyme APOBEC-3G, sequence (Q9HC16 whole entry): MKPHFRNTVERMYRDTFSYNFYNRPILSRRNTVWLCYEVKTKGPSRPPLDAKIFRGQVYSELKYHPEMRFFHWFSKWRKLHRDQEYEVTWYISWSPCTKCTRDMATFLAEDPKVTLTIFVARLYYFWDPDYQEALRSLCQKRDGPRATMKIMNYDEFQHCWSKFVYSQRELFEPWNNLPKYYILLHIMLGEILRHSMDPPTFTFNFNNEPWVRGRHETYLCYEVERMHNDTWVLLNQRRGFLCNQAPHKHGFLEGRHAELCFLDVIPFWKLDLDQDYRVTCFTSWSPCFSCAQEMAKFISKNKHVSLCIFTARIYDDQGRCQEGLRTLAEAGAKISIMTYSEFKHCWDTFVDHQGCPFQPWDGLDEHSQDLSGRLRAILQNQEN

[12] = target: T3, Orexin/Hypocretin receptor type 1 (Homo sapiens, UniProt O43613); assay: Homogeneous Time Resolved Fluorescence (HTRF)-based cell-based high throughput dose response assay for antagonists of the orexin 1 receptor (OX1R; HCRTR1). [Related pubchem assays (depositor defined):AID434989, AID435008, AID463079, AID485270, AID492963, AID492964, AID492965, AID493232, AID504717, AID504718]; format: functional
T3 sequence (O43613 whole entry): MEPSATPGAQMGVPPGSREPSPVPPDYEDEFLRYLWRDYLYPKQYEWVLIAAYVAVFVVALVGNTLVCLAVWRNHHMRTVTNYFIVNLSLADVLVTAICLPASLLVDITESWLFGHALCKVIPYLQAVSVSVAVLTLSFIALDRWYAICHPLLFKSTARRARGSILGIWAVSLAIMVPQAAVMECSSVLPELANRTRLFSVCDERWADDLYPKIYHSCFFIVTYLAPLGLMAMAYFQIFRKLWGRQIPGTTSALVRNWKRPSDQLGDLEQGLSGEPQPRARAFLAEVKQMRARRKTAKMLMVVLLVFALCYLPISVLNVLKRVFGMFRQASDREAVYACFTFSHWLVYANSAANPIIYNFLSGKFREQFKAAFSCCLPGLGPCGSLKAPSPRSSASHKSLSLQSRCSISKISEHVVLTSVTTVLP

[13] = target: T3, Orexin/Hypocretin receptor type 1; assay: Fluorescence-based cell-based high throughput dose response assay for antagonists of the orexin 1 receptor (OX1R; HCRTR1). [Related pubchem assays (depositor defined):AID434989, AID435008, AID463079, AID485270, AID492963, AID492964, AID492965, AID493232, AID504717, AID504718]; format: functional
[14] = target: T4, Orexin receptor type 2 (Homo sapiens, UniProt O43614); assay: Counterscreen assay for antagonists of the orexin 1 receptor (OX1R; HCRTR1): Fluorescence-based cell-based dose response assay for antagonists of the orexin 2 receptor (OX2R; HCRTR2), run by assay provider.; format: functional
T4 sequence (O43614 whole entry): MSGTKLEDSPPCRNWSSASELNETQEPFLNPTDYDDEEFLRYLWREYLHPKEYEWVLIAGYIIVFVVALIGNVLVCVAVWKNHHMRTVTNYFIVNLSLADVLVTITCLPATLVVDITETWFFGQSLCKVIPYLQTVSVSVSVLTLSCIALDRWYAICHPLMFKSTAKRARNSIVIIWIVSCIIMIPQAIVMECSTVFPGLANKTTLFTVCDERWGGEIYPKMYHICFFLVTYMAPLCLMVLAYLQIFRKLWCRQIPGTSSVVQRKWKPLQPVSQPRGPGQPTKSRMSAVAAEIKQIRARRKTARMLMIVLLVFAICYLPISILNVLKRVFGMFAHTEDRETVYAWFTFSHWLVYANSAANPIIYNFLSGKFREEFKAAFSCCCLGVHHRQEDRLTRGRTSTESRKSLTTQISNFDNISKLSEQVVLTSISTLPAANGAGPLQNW

[15] = target: T4, Orexin receptor type 2; assay: Counterscreen assay for antagonists of the orexin 1 receptor (OX1R; HCRTR1): Homogeneous Time Resolved Fluorescence (HTRF)-based cell-based dose response assay for antagonists of the orexin 2 receptor (OX2R; HCRTR2), run by assay provider.; format: functional

Row | SMILES | IC50 [1] | IC50 [2] | IC50 [3] | IC50 [4] | AC50 [5] | IC50 [6] | AC50 [7] | IC50 [8] | IC50 [9] | IC50 [10] | IC50 [11] | IC50 [12] | IC50 [13] | IC50 [14] | IC50 [15]
1 | CC1=C(C#N)c2nc(N)c(C#N)c(C)c2/C1=C\c1ccc(-c2ccccc2C(=O)O)o1 | 52.2 µM (active) | 86.6 µM (active) | > 20 µM (inactive) | 70.3 µM (active) | 15.3 µM (active) | 27.2 µM (active) | > 20 µM (inactive) |  |  |  |  |  |  |  | 
2 | COC(=O)c1ccccc1NC(=O)c1sc(=S)n(C)c1N |  |  |  |  |  |  |  | > 50 µM (not active) | > 66.2 µM (inactive) | > 49.8 µM (inactive) | 67.7 µM (active) | 0.407 µM (active) | 1.41 µM (active) | 1.4 µM (active) | > 50 µM (inactive)
